Test results as given in PubChem BioAssay (NCI).
Several values for one entry are separate records, joined by “and”; a condition that tells them apart may be missing. Equal values may be shown once.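 Compound exposure: 48 hours, 5 concentrations, 96-well plates. GI50 is the concentration that inhibits growth by half. TGI denotes the concentration required for complete inhibition of growth.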

Tests used:
Experiment in all cases: NCI tumour cell line growth inhibition, 48 h
[1] = test system: MDA-N
[2] = test system: M19-MEL melanoma
[3] = test system: DMS 114 small cell lung
[4] = test system: DLD-1 colon
[5] = test system: LXFL 529 NSCLC
[6] = test system: KM20L2 colon
[7] = test system: SNB-78 CNS
[8] = test system: XF 498 CNS
[9] = test system: RXF-631 renal
[10] = test system: SN12K1 renal
[11] = test system: P388 leukemia

Structure (SMILES) | TGI [2] | TGI [3] | TGI [4] | TGI [5] | TGI [6] | TGI [7] | TGI [8] | TGI [9] | also measured
O=C(O)Cn1ccnc1[N+](=O)[O-] | – | – | – | – | – | – | – | – | TGI [1]: > 100 µM
CCOc1ccc(-c2oc(/C=N/NS(=O)(=O)c3ccc(C)cc3)c([N+](=O)[O-])c2-c2ccc(OCC)cc2)cc1 | 13.3 µM | 12 µM | 17.6 µM | 26.6 µM | 31.9 µM | 34.6 µM | – | – | –
C[N+](C)=c1nc(N2CCOCC2)ss1 | – | – | – | > 100 µM | – | > 100 µM | > 100 µM | – | –
NC(=O)c1c[se]c(C2OC(COP(=O)(O)CP(=O)(O)OCC3OC(n4cnc5c(N)ncnc54)C(O)C3O)C(O)C2O)n1 (stereo unspecified) | > 100 µM | > 100 µM | > 100 µM | > 100 µM | > 100 µM | > 100 µM | > 100 µM | – | –
CCCCCCCCCC(=O)Oc1cccc2onc(C)c12 | > 100 µM | > 100 µM | > 100 µM | > 100 µM | > 100 µM | > 100 µM | – | > 100 µM | –
COC(=O)C1(F)C(=O)NC(=O)NC1OC (stereo unspecified) | > 100 µM | > 100 µM | > 100 µM | – | > 100 µM | > 100 µM | > 100 µM | – | –
CC1(C)OC(COCCOCCCCCO)C(COCCOCCCCCO)O1 (stereo unspecified) | > 100 µM | > 100 µM | > 100 µM | > 100 µM | > 100 µM | > 100 µM | – | > 100 µM | –
c1ccc(NC[Si]23OCCN(CCO2)CCO3)cc1 | > 100 µM | > 100 µM | > 100 µM | > 100 µM | – | > 100 µM | – | > 100 µM | –
COc1cc(O)c(C(C)=O)c(O)c1 | – | – | – | – | – | – | – | – | TGI [1]: > 100 µM
Cc1nnc(N=Nc2c(O)[nH]c3ccccc23)n1N | > 100 µM | > 100 µM | > 100 µM | > 100 µM | > 100 µM | > 100 µM | > 100 µM | > 100 µM | –
O=[N+]([O-])C1C2C=CC(C2)[C@H]1c1ccc(Cl)cc1Cl (stereo partly specified) | > 100 µM | – | > 100 µM | > 100 µM | – | > 100 µM | > 100 µM | – | –
Cc1ccc(/C=C2\CNC/C(=C\c3ccc(C)cc3)C2=O)cc1 | 2.98 µM and 5 µM | 4.98 µM | 1.2 µM and 2.32 µM | 2.71 µM and 2.17 µM | 3.02 µM and 3.14 µM | > 100 µM | 5.16 µM | – | GI50 [2]: 2.1 µM; GI50 [4]: 0.916 µM; GI50 [5]: 0.819 µM; TGI [1]: 3.53 µM
CC1(C)CC(=O)c2c(oc3cc(O)c(O)cc23)C1 | > 100 µM | 32.5 µM | 53.9 µM | 91.8 µM | > 100 µM | > 100 µM | – | > 100 µM | –
CC(c1ccccc1)N1CC(C)(c2ccccc2)N(O)C(c2ccccc2)C1C (stereo unspecified) | – | 45.1 µM | > 100 µM | 37.3 µM | 44.7 µM | 89.9 µM | – | 82 µM | –
Cc1ccccc1NC(=O)C(=O)CC(=O)c1ccc([N+](=O)[O-])cc1 | > 100 µM | > 100 µM | > 100 µM | > 100 µM | > 100 µM | > 100 µM | > 100 µM | > 100 µM | –
CC(C)(C)[Si](C)(C)OCC1OC(n2cnc3c(N)ncnc32)C(O)C1O (stereo unspecified) | – | – | – | – | – | – | – | – | TGI [1]: > 100 µM
Cc1cc([N+](=O)[O-])c(S(=O)(=O)c2ccccc2)c([N+](=O)[O-])c1 | 26.3 µM | 9.63 µM | 17 µM | 10.6 µM | 37.3 µM | 48.6 µM | 27.6 µM | > 100 µM | –
CC[C@@]1(O)C(=O)OCc2c1cc1n(c2=O)Cc2cc3c(N)cccc3nc2-1 | 0.654 µM | 0.121 µM | > 51.7 µM | 2.98 µM | 4.02 µM | > 100 µM | 1.05 µM | 1.69 µM | TGI [10]: 1.34 µM; GI50 [1]: 0.333 µM; TGI [1]: > 33.8 µM; TGI [11]: 0.3 µM
COc1ccc(CC2=NCCc3cc(OC)c(OC)cc32)cc1Br | > 100 µM | 48.3 µM | > 100 µM | > 100 µM | 99.3 µM | > 100 µM | 53.1 µM | – | –
CCOC1=C2NC(Cc3ccc(F)cc3)=NC2C(=O)c2ccccc21 (stereo unspecified) | 39.5 µM | 61.9 µM | > 100 µM | 77.3 µM | > 100 µM | > 100 µM | – | > 100 µM | –
COC(=O)C(C(=O)C(=O)NC1Nc2ccc(C)cc2S1)c1nc2ccc(Cl)cc2[nH]c1=O (stereo unspecified) | – | – | – | – | – | – | – | – | TGI [1]: > 100 µM

Structure (SMILES) | TGI [2] | TGI [3] | TGI [4] | TGI [5] | TGI [6] | TGI [7] | TGI [8] | TGI [9] | also measured
C/C(=N/NC(=O)CC(=O)N(C(=O)c1ccccc1Cl)c1ccc(C)cc1)c1cc2ccccc2oc1=O | > 100 µM | > 100 µM | > 100 µM | > 100 µM | > 100 µM | > 100 µM | > 100 µM | > 100 µM | –
COc1cc2cccc(N=Cc3c(Br)ccc(OC)c3OC(C)C)c2cc1OC | > 100 µM | 63.5 µM | 82.2 µM | > 100 µM | > 100 µM | > 100 µM | > 100 µM | – | –
O=C(O)C1C(C(=O)O)C2(Cl)C(Cl)=C(Cl)C1(Cl)C2(Cl)Cl.[Cd] (stereo unspecified) | – | – | – | – | – | – | – | – | GI50 [1]: 8.5 µM; TGI [1]: 22.6 µM
CCCCCCCCCCCCCCCCS(=O)(=O)c1ccc(NN)cc1 | – | – | – | – | – | – | – | – | TGI [1]: > 10 µM
C=CC1=CC(C)C[C@]1(O)C(=O)OC (stereo partly specified) | – | – | – | – | > 100 µM | > 100 µM | – | – | GI50 [2]: > 100 µM; GI50 [3]: > 100 µM; GI50 [8]: > 100 µM; GI50 [4]: > 100 µM; GI50 [5]: > 100 µM; GI50 [9]: > 100 µM
CC(=O)OCCC(O[Si](c1ccccc1)(c1ccccc1)C(C)(C)C)C(C)(C)O (stereo unspecified) | 57.2 µM | 53.6 µM | – | > 100 µM | > 100 µM | > 100 µM | 96.8 µM | > 100 µM | –
CC[P+]1(CC)CCCC1 | > 100 µM | > 100 µM | > 100 µM | > 100 µM | > 100 µM | > 100 µM | > 100 µM | – | –
COc1cc([C@H]2c3[nH]c4ccccc4c3C[C@H]3COC(=O)N32)cc(OC)c1O | > 100 µM | – | > 100 µM | – | – | > 100 µM | 43 µM | – | –
CC(=O)[CH-]C(=O)c1ccccc1.CC(=O)[CH-]C(=O)c1ccccc1.[CH2-]CCC.[CH2-]CCC.[Sn+4] | 1.96 µM | – | – | 0.627 µM | 3.94 µM | – | – | – | GI50 [2]: 0.632 µM; GI50 [5]: 0.198 µM; GI50 [6]: 1.99 µM
COc1ccc2[nH]c3c(=O)[nH]ncc3c2c1 | > 100 µM | > 100 µM | > 100 µM | > 100 µM | – | > 100 µM | – | – | –
COC(=O)c1cc2c3c(ccc2[nH]1)N(C(=O)c1cc2c4c(ccc2[nH]1)N(C(=O)c1cc2c5c(ccc2[nH]1)N(C(N)=O)CC5)CC4)CC3 | – | 57.3 µM | > 100 µM | – | > 100 µM | > 100 µM | – | – | –
NC(=O)C(=O)n1ncc(Cl)c(Cl)c1=O | > 65.3 µM | 36.6 µM | 47.7 µM | 29 µM | > 90.8 µM | 49.8 µM | 31.6 µM | – | TGI [1]: > 100 µM
COc1nc2c(c(O)c(C)c(=O)n2OC2OC(COC(C)=O)C(OC(C)=O)C(OC(C)=O)C2OC(C)=O)c(=O)n1C (stereo unspecified) | > 100 µM | > 100 µM | > 100 µM | > 100 µM | > 100 µM | > 100 µM | > 100 µM | > 100 µM | –
CCN(CC)CCCCC1CCN(CC(=O)N2c3ccccc3NC(=O)CC2C)CC1 (stereo unspecified) | > 100 µM | > 100 µM | – | > 100 µM | > 100 µM | > 100 µM | – | > 100 µM | –
COc1ccc(C2NCCc3c2[nH]c2ccccc32)cc1 (stereo unspecified) | > 100 µM | – | > 100 µM | > 100 µM | > 100 µM | – | > 100 µM | > 100 µM | –
CCOC(=O)C[C@@]12CCCNC1(C)CCc1ccccc12 (stereo partly specified) | > 100 µM | > 100 µM | > 100 µM | – | > 100 µM | – | > 100 µM | – | –
C/C(=N/O)c1ccc2c(c1)C(=NO)c1cc(/C(C)=N/O)ccc1-2 | 64.8 µM | 53.7 µM | 52.8 µM | 29 µM | 32.3 µM | 47.9 µM | 36.2 µM | – | –
O=C(O)[C@@H]1CCCC[C@@H]1C(=O)N(C1CCCCC1)C1CCCCC1 | > 100 µM | > 100 µM | > 100 µM | > 100 µM | > 100 µM | > 100 µM | – | > 100 µM | –
O=C(O)C1C2C=CC(O2)C1C(=O)Nc1ncccn1 (stereo unspecified) | – | – | – | – | – | – | – | – | TGI [1]: > 100 µM
CC(C)(CO)N=Cc1ccccc1[O-].CC(C)(CO)N=Cc1ccccc1[O-].[Co+2] | > 100 µM | > 100 µM | > 100 µM | > 100 µM | > 100 µM | > 100 µM | > 100 µM | – | GI50 [2]: > 73.8 µM; GI50 [3]: 18.7 µM; GI50 [8]: > 100 µM; GI50 [4]: 26.6 µM; GI50 [5]: 19.2 µM; GI50 [6]: 61.9 µM; GI50 [7]: > 100 µM
